From paper PMC8538957 (Pharmaceutics, 2021)

Molecular target: T1, UGT2B7 (UDP-glycosyltransferase) (Homo sapiens, UniProt P16662)
T1 construct: human liver microsomes encapsulated in hydrogel (HLM-Gel)
T1 sequence (P16662 24-529): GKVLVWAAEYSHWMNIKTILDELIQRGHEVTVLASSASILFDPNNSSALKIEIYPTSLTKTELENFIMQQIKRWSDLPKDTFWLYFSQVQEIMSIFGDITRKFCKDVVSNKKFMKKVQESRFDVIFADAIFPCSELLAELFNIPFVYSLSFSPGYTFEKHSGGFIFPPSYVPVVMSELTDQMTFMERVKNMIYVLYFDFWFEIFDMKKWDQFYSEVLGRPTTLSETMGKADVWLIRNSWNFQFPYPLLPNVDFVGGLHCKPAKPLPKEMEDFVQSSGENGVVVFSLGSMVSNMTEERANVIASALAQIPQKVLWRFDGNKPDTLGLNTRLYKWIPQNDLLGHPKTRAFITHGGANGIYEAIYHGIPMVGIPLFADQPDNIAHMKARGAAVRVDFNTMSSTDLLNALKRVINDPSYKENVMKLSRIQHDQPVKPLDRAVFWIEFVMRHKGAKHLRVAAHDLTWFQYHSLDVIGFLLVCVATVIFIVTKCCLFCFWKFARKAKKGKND
Test: inhibition of AZT glucuronidation in human liver microsomes in the Bio-PK dynamic system, HPLC, Ki fitted by MATLAB model
Type: biochemical

OC(Cn1cncn1)(Cn1cncn1)c1ccc(F)cc1F [FCZ, fluconazole]
Ki: 14 µM
